Structures can show the parent of a compound that is named as a salt. Where two headings read alike, the source gives them in different places.

This is an account of results in patent US5698546A, “Cyclic polyamines” (Johnson Matthey Public Limted Company, priority 1994, dated 1997).

For one data set, the system named is HIV-1 (HTLV-IIIB). Briefly: microbe, parasite or virus in culture. It counts as cell-based.
The next data set deals with HIV-2 (LAV-2 ROD). Briefly: MT-4 cells challenged with HIV-2, viability by MTT method (antiviral activity). It counts as cell-based, Human Immunodeficiency Virus. Conditions: for IC50: Human immunodeficiency virus 2, MT4, 120 h.
Data set [1] can be described thus: cytotoxicity in MT-4 cells, MTT method. The conditions noted are these: human.
The nature of data set [2]: octanol/buffer partition coefficient. Format: physicochemical. Conditions: for logD: octanol/buffer. The source says:
The compounds were additionally studied to determine their partition coefficients as between octanol and water, in standard tests at various pH values. A partition coefficient greater than unity at pH 7-9 is generally considered to be a good indication that the compound will be absorbed through the upper gastrointestinal tract when dosed orally.

Another data set concerns cells. Conditions: in words; cited from earlier work.
The nature of another data set: solubility in water. It counts as physicochemical. The conditions noted are these: dimer believed to be the meso 2R,2'S isomer, characterised by the applicant.
For data set [3] the following is noted: literature (Barefield et al); cited from earlier work.
Where [4] appears, read: Human immunodeficiency virus 1, MT4, 120 h, HIV-1 (IIIB), MT-4 cells, 5 days at 37° C., read-out: IC50.
Setting [5] is: HIV-2 (ROD), MT-4 cells, 5 days at 37° C., read-out: IC50.
Setting [6] is: CC50, HIV-1 (IIIB) part of Table 1, 5 days at 37° C.
Where [7] appears, read: CC50, HIV-2 (ROD) part of Table 1, 5 days at 37° C.
Where [8] appears, read: Human immunodeficiency virus 1, IIIB, MT4, 120 h.

Usually IC50 stands for the concentration that inhibits the measured activity by half. One may read the CC50 as the concentration that lowers cell viability or growth by half. A lower CC50 goes with greater toxicity to the cells. As to `c1cc(CN2CCNCc3cccc(n3)CNCC2)cc(CN2CCNCc3cccc(n3)CNCC2)c1` [Compound H, 6,6'-[1,3-Phenylenebis(methylene)]bis-3,6,9,15-tetraazabicyclo[11.3.1]pentadeca-1(15),11,13-triene hexahydrobromide trihydrate], the “SI (Selectivity Index, ratio of CC50 to IC50)” value is recorded as 309 in the data set with HIV-1 (HTLV-IIIB) (HIV-1 (IIIB), MT-4 cells) and 1.12 × 10^4 with HIV-2 (LAV-2 ROD) (HIV-2 (ROD), MT-4 cells). Further, the IC50 in the data set on HIV-1 (HTLV-IIIB) (setting [4]) is 0.104 µg/mL; in the data set with HIV-2 (LAV-2 ROD) (setting [5]), 0.0027 µg/mL. The results for the CC50 at 120 h in data set [1] (setting [6]) and in data set [1] (setting [7]) were 32.1 µg/mL and 30.7 µg/mL, respectively.
What is called logD is the decadic logarithm of the distribution of all forms, ionised or not, between an organic phase and buffer at a given pH. Read a high logD as a more lipophilic compound. Regarding `O=c1cc2[nH]c(c1)CNCCCN(Cc1ccc(CN3CCCNCc4cc(=O)cc([nH]4)CNCCC3)cc1)CCCNC2` [Compound D, 7,7'-[1,4-Phenylenebis(methylene)]bis-3,7,11,17-tetraazabicyclo-[13.3.1]-heptadeca-13,16-triene-15-one octahydrobromide], the “SI (Selectivity Index, ratio of CC50 to IC50)” value is on record as less than 1 in the data set with HIV-1 (HTLV-IIIB) (HIV-1 (IIIB), MT-4 cells) and less than 1 in the data set on HIV-2 (LAV-2 ROD) (HIV-2 (ROD), MT-4 cells). Besides, the IC50 is more than 218 µg/mL with HIV-1 (HTLV-IIIB) (setting [8]) and more than 250 µg/mL with HIV-2 (LAV-2 ROD). Also, the logD is -1.6 in data set [2] (pH 8) and -0.638 in data set [2] (pH 9). Further, the results for the CC50 at 120 h in data set [1] (setting [6]) and in data set [1] (setting [7]) were more than 218 µg/mL and more than 250 µg/mL, respectively.
Regarding `c1cc2nc(c1)CNCCCN(Cc1ccc(CN3CCCNCc4cccc(n4)CNCCC3)cc1)CCCNC2` [Compound A, 7,7'-[1,4-Phenylenebis(methylene)]bis-3,7,11,17-tetraazabicyclo[13.3.1heptadeca-1(17),13,15-trienehexahydrobromide hexahydrate], the IC50 with HIV-1 (HTLV-IIIB) (setting [8]) is 0.719 µg/mL; in the data set with HIV-2 (LAV-2 ROD) it was 3.51 µg/mL. Besides, the log distribution coefficient (logD) in data set [2] (pH 8) was -0.963; in data set [2] (pH 9), 0.713. The CC50 at 120 h in data set [1] (setting [6]) and in data set [1] (setting [7]) was more than 250 µg/mL each time.
On to `c1cc2nc(c1)CNCCN(Cc1ccc(CN3CCNCc4cccc(n4)CNCC3)cc1)CCNC2` [Compound G, 6,6'-[1,4'-Phenylenebis(methylene)]bis-3,6,9,15-tetraazabicyclo[11.3.1]pentadeca-1(15),11,13-triene hexahydromide trihydrate], for which the figures for the IC50 in the data set with HIV-1 (HTLV-IIIB) (setting [4]) and with HIV-2 (LAV-2 ROD) (setting [5]) were 0.62 µg/mL and 0.15 µg/mL, respectively. Also, in the data set on HIV-2 (LAV-2 ROD) (HIV-2 (ROD), MT-4 cells), the “SI (Selectivity Index, ratio of CC50 to IC50)” value amounted to 31. The CC50 at 120 h in data set [1] (setting [6]) stood at 6 µg/mL; in data set [1] (setting [7]), 4.71 µg/mL.
`c1cc2nc(c1)CNCCN(Cc1ccc(CN3CCNCc4cccc(n4)CNCCNCc4cccc(n4)C3)cc1)Cc1cccc(n1)CNCCNC2` [Compound K, 17,17'-[1,4-Phenylene-bis(methylene)]bis-3,6,14,17,23,24-hexaazatricyclo[17.3.1.1^8,12] tetracosa-1(23),8,10,12(24),19,21-hexnene octahydrobromide]: the “SI (Selectivity Index, ratio of CC50 to IC50)” value was less than 1 in the data set on HIV-1 (HTLV-IIIB) (HIV-1 (IIIB), MT-4 cells) and less than 1 with HIV-2 (LAV-2 ROD) (HIV-2 (ROD), MT-4 cells). Further, the IC50 was determined as 4.59 µg/mL in the data set on HIV-1 (HTLV-IIIB) (setting [8]) and 5.89 µg/mL in the data set on HIV-2 (LAV-2 ROD). Further, the logD in data set [2] (pH 8) was -1.15; in data set [2] (pH 9) it was 0.25. In addition, the results for the CC50 at 120 h in data set [1] (setting [6]) and in data set [1] (setting [7]) were 4.59 µg/mL and 5.89 µg/mL, respectively.
With `c1cc2nc(c1)CCNCCCN(Cc1ccc(CN3CCCNCCc4cccc(n4)CCNCCC3)cc1)CCCNCC2` [Compound F, 8,8'-[1,4-Phenylenebis(methylene)]bis-4,8,12,19-tetraazabicyclo[15.3.1]nonadeca-1(19),15,17-triene octahydrobromide heptahydrate], the “SI (Selectivity Index, ratio of CC50 to IC50)” value turned out to be 336 in the data set with HIV-1 (HTLV-IIIB) (HIV-1 (IIIB), MT-4 cells) and 102 with HIV-2 (LAV-2 ROD) (HIV-2 (ROD), MT-4 cells). In addition, the IC50 in the data set on HIV-1 (HTLV-IIIB) (setting [4]) came to 0.59 µg/mL; with HIV-2 (LAV-2 ROD) (setting [5]), 1.68 µg/mL. Also, the figures for the CC50 at 120 h in data set [1] (setting [6]) and in data set [1] (setting [7]) were 199 µg/mL and 171 µg/mL, respectively.
On to `Cc1cn([C@H]2C[C@H](N=[N+]=[N-])[C@@H](CO)O2)c(=O)[nH]c1=O` [AZT], for which the toxicity to cells entry in the data set with cells is given as “high toxicity to cells”.
On to `Clc1cc2nc(c1)CNCCCN(Cc1ccc(CN3CCCNCc4cc(Cl)cc(n4)CNCCC3)cc1)CCCNC2` [Compound B, 7,7'-[1,4-Phenylenebis(methylene)]bis[15-chloro-3,7,11,17-tetraazabicyclo[13.3.1]heptadeca-1(17),13,15-triene]hexahydrobromide monoacetate], for which the “SI (Selectivity Index, ratio of CC50 to IC50)” value in the data set on HIV-1 (HTLV-IIIB) (HIV-1 (IIIB), MT-4 cells) is 14. For the same compound, the IC50 in the data set with HIV-1 (HTLV-IIIB) (setting [8]) was 0.89 µg/mL. Further, the figures for the logD in data set [2] (pH 7), in data set [2] (pH 8) and in data set [2] (pH 9) were -1, 0.588 and 1.46, respectively. Besides, in data set [1] (setting [6]), the CC50 at 120 h turned out to be 12.5 µg/mL.
For the compound `c1cc(CN2CCCNCCOCCNCCC2)ccc1CN1CCCNCCOCCNCCC1` [Compound J, 8,8'-[1,4-Phenylenebis(methylene)]bis-1-oxa-4,8,12-triazatetradecane-hexahydro bromide trihydrate], the “SI (Selectivity Index, ratio of CC50 to IC50)” value is more than 54 in the data set on HIV-1 (HTLV-IIIB) (HIV-1 (IIIB), MT-4 cells) and more than 116 in the data set on HIV-2 (LAV-2 ROD) (HIV-2 (ROD), MT-4 cells). Moreover, the half-inhibitory concentration (IC50) in the data set with HIV-1 (HTLV-IIIB) (setting [8]) amounted to 4.62 µg/mL; with HIV-2 (LAV-2 ROD), 2.15 µg/mL. For the same compound, the values for the logD in data set [2] (pH 7), in data set [2] (pH 8) and in data set [2] (pH 9) were -2.52, -1.92 and -0.131, respectively. Besides, the CC50 at 120 h in data set [1] (setting [6]) and in data set [1] (setting [7]) was more than 250 µg/mL in each case.
Regarding `c1cc2nc(c1)CCNCCN(Cc1ccc(CN3CCNCCc4cccc(n4)CCNCC3)cc1)CCNCC2` [Compound E, 7,7'-[1,4-Phenylenebis(methylene)]bis-4,7,10,17-tetraazabicyclo-[13.3.1]heptadeca-1(17),13,15-triene octahydrobromide tetrahydrate], the IC50 in the data set with HIV-1 (HTLV-IIIB) (setting [8]) turned out to be 0.0014 µg/mL; in the data set with HIV-2 (LAV-2 ROD) it was 0.001 µg/mL. For the same compound, the logD in data set [2] (pH 7) is -2.4; in data set [2] (pH 8), -1.44; in data set [2] (pH 9), 0.479. Moreover, the CC50 at 120 h in data set [1] (setting [6]) and in data set [1] (setting [7]) was more than 250 µg/mL in each case.
As for `C1CNCCNCCCN[C@H]([C@H]2CNCCCNCCNCCCN2)CNC1` [meso 2R,2'S isomer], in the data set “solubility in water”, the solubility in water result is on record as “soluble”.
With `c1cc(CN2CCCNCCNCCCNCC2)ccc1CN1CCCNCCNCCCNCC1` [Compound L, 1,1'-[1,4-phenylenebis(methylene)]bis-1,4,8,11-tetraazacyclotetra-decane octahydrobromide dihydrate, reference compound], the IC50 with HIV-1 (HTLV-IIIB) (Human immunodeficiency virus 1, IIIB, MT4, 120 h, read-out: IC50) stood at 0.0068 µg/mL; with HIV-2 (LAV-2 ROD) (setting [5]), 0.009 µg/mL. Also, the results for the octanol/buffer partition coefficient in data set [2] (pH 7), in data set [2] (pH 8) and in data set [2] (pH 9) were 0.0016, 0.005 and 0.16, respectively. Besides, the CC50 at 120 h in data set [1] (setting [6]) and in data set [1] (setting [7]) was more than 250 µg/mL each time.
As to `COc1cc2nc(c1)CNCCCN(Cc1ccc(CN3CCCNCc4cc(OC)cc(n4)CNCCC3)cc1)CCCNC2` [Compound C, 7,7'-[1,4-Phenylenebis(methylene)]bis[15-methoxy-3,7,11,17-tetraazabicyclo-[13.3.1]heptadeca-1(17),13,15-triene] hexahydrobromide dihydrate], the “SI (Selectivity Index, ratio of CC50 to IC50)” value in the data set with HIV-1 (HTLV-IIIB) (HIV-1 (IIIB), MT-4 cells) is recorded as 64. The IC50 is 3.57 µg/mL in the data set with HIV-1 (HTLV-IIIB) (setting [8]) and 9.74 µg/mL in the data set with HIV-2 (LAV-2 ROD). Also, the logD in data set [2] (pH 8) is -0.959; in data set [2] (pH 9) it was -0.0605. The CC50 at 120 h in data set [1] (setting [6]) is 229 µg/mL; in data set [1] (setting [7]), more than 250 µg/mL.
Turning to `C1CNCCNCCCNC(C2CNCCCNCCNCCCN2)CNC1` (stereo not drawn) [2,2'-dimer of cyclam], the solubility in water entry in data set [3] was “insoluble in water”.
